Data published in US20260193236A1 (Protego Biopharma, Inc., priority 2022, published 2026).
Read-outs that look alike come from different tables or passages of the source.

Test system: IRE1-XBP1s (XBP1-RLuc splicing reporter in HEK293 T-REx cells)
Test: IRE1-XBP1s activation assay (XBP1-RLuc splicing reporter, HEK293 T-REx cells, luminescence relative to thapsigargin)
Assay type: cell-based
Settings: 18 h, read-out: Activity (IRE1-XBP1s activation, luminescence as % signal relative to thapsigargin, % Tg)
Experimental: IRE1-XBP1s activation Assay: HEK293 T-REx cells stably expressing the XBP1-RLuc splicing reporter were treated with an IRE1-XBP1s activator provided herein (10 μM) in the presence or absence of the IRE1 active site inhibitor 4μ8C (32 μM) for 18 h. Luminescence was shown as the percentage signal relative to thapsigargin (Tg) (500 nM, 18 h).

[1] = compound 10 μM, HEK293 T-REx XBP1-RLuc reporter cells, relative to thapsigargin (Tg) 500 nM

SMILES | activation at 10 µM [1] [%] | activation at 10 µM [%]
CN(CCOc1cc(Cl)ccn1)C(=O)Cn1cc(NC(=O)CCOc2ccccc2F)cn1 [Compound 47] | < 30 | 
Cc1ccc(OCCN(C)C(=O)Cn2cc(NC(=O)CCNc3cc(C)nc(C)c3)cn2)cc1 [Compound 123, 3-((2,6-dimethylpyridin-4-yl)amino)-N-(1-(2-(methyl(2-(p-tolyloxy)ethyl)amino)-2-oxoethyl)-1H-pyrazol-4-yl)propanamide] | 30 to 50 | 
Cc1ccc(OCCN(C)C(=O)Cn2cc(NC(=O)CCOc3c(F)cc(C)cc3F)cn2)cc1 [Compound 116] | > 50 | 
COc1cccc(NCCC(=O)Nc2cnn(CC(=O)N(C)CCOc3ccc(C)cc3)c2)n1 [Compound 188] | < 30 | 
[2H]C([2H])([2H])c1ccc(OCCN(C)C(=O)Cn2cc(NC(=O)CCOc3ccc(C)cc3F)cn2)cc1 [Compound 91] | 30 to 50 | 
Cc1ccc(OCCC(=O)Nc2cnn(CC(=O)N(C)CCOc3ccc(Cl)cc3)c2)c(F)c1 [Compound 71] | < 30 | 
Cc1ccc(OCCN(C)C(=O)Cn2cc(NC(=O)COc3ccc4ccccc4n3)cn2)cc1 [Compound 288] | < 30 | 
COc1ccc(OCCC(=O)Nc2cnn(CC(=O)N(C)CCOc3ccc(C)cc3)c2)cc1 [Compound 42] | 30 to 50 | 
CN(CCOc1ccc(C(F)(F)F)cn1)C(=O)Cn1cc(NC(=O)CCNc2ccnc(O)n2)cn1 [Compound 265] | < 30 | 
Cc1ccc(OCCN(C)C(=O)Cn2cc(NC(=O)CCOc3c(F)cccc3F)cn2)cc1 [Compound 56] | > 50 | 
Cc1ccc(OCCN(C)C(=O)Cn2cc(NC(=O)CCNc3ncccn3)cn2)cc1 [Compound 138] | > 50 | 
Cc1ccc(OCCN(C)C(=O)Cn2cc(NC(=O)CCOc3ncncc3N)cn2)cc1 [Compound 109] | > 50 | 
Cc1ccc(OCCN(C)C(=O)Cn2cc(NC(=O)CCNc3ccnc4ncnn34)cn2)cc1 [Compound 200] | < 30 | 
Cc1ccc(OCCN(C)C(=O)Cn2cc(NC(=O)CCOc3ccc(F)cc3C)cn2)cc1 [Compound 35] | > 50 | 
CNC(=O)c1cnc(NCCC(=O)Nc2cnn(CC(=O)N(C)CCOc3ccc(C)cc3)c2)nc1 [Compound 211] | < 30 | 
COc1ccc(OCCN(C)C(=O)Cn2cc(NC(=O)CCOc3ccc(C)cc3F)cn2)cc1 [Compound 77] | < 30 | 
Cc1ccc(OCCN(C)C(=O)Cn2cc(NC(=O)CCOc3ccc(C(F)(F)F)cc3)cn2)cc1 [Compound 44] | < 30 | 
Cc1ccc(OCCN(C)C(=O)Cn2cc(N(C)C(=O)CCOc3ccccc3)cn2)cc1 [Compound 50] | < 30 | 
Cc1ccc2nc(OCCN(C)C(=O)Cn3cc(NC(=O)CCNc4ccc(F)nc4C)cn3)sc2c1 [Compound 239] | < 30 | 
Cc1ccc(OCCN(C)C(=O)Cn2cc(NC(=O)CCNc3cc(C#N)ccn3)cn2)cc1 [Compound 137] | < 30 | 
Cc1ccc(OCCC(=O)Nc2cnn(CC(=O)N(C)CCOc3ccc(C4CC4)cc3)c2)c(F)c1 [Compound 73] | 30 to 50 | 
CN(CCOc1ccc(C(F)(F)F)cn1)C(=O)Cn1cc(NC(=O)CCNc2c(F)cncc2Cl)cn1 [Compound 213] | > 50 | 
Cc1nnc(OCCN(C)C(=O)Cn2cc(NC(=O)CCNc3ccc(F)nc3C)cn2)s1 [Compound 247] | < 30 | 
Cc1ccc(OCCN(C)C(=O)Cn2cc(NC(=O)CCOc3cccnc3NS(C)(=O)=O)cn2)cc1 [Compound 273, N-(1-(2-(methyl(2-(p-tolyloxy)ethyl)amino)-2-oxoethyl)-1H-pyrazol-4-yl)-3-((2-(methylsulfonamido)pyridin-3-yl)oxy)propanamide] | < 30 | 

SMILES | activation at 10 µM [1] [%] | activation at 10 µM [%]
COc1cnccc1NCCC(=O)Nc1cnn(CC(=O)N(C)CCOc2ccc(C)cc2)c1 [Compound 198] | < 30 | 
CN(CCOc1ccccn1)C(=O)Cn1cc(NC(=O)CCOc2ccccc2F)cn1 [Compound 43, 3-(2-fluorophenoxy)-N-(1-(2-(methyl(2-(pyridin-2-yloxy)ethyl)amino)-2-oxoethyl)-1H-pyrazol-4-yl)propanamide] |  | < 30
Cc1ccc(OCCN(C)C(=O)Cn2cc(NC(=O)CCOc3cccnc3)cn2)cc1 [Compound 6, N-(1-(2-(methyl(2-(p-tolyloxy)ethyl)amino)-2-oxoethyl)-1H-pyrazol-4-yl)-3-(pyridin-3-yloxy)propanamide] | > 50 | 
Cc1ccc(OCCN(C)C(=O)Cn2cc(NC(=O)CCOc3ncccc3[N+](=O)[O-])cn2)cc1 [Compound 113] | > 50 | 
COc1cc(OCCN(C)C(=O)Cn2cc(NC(=O)CCNc3ncccn3)cn2)ccc1C [Compound 283] | < 30 | 
Cc1ccc(OCC(C)(C)N(C)C(=O)Cn2cc(NC(=O)CCNc3ccnc(F)n3)cn2)cc1 [Compound 256] | > 50 | 
Cc1ccc(OCCN(C)C(=O)Cn2cc(NC(=O)[C@H](CNc3ccc(F)nc3C)C(C)C)cn2)cc1 [Compound 172] | 30 to 50 | 
Cc1ccc(OCCN(C)C(=O)Cn2cc(NC(=O)CCNc3cccc(F)n3)cn2)cc1 [Compound 144] | > 50 | 
Cc1ccc(OCCN(C)C(=O)Cn2cc(NC(=O)CCOc3ccnc(NC(=O)OC(C)(C)C)c3)cn2)cc1 [Compound 101] | > 50 | 
Cc1ccc(OCCN(C)C(=O)Cn2cc(NC(=O)CCOc3ccc(F)cc3C(F)(F)F)cn2)cc1 [Compound 60] | < 30 | 
Cc1ccc(OCCN(C)C(=O)Cn2cc(NC(=O)OC3CCCN(c4ccnc(F)n4)C3)cn2)cc1 (stereo not drawn) [Compound 201] | < 30 | 
Cc1ccc(OCCN(C)C(=O)Cn2cc(NC(=O)CCNc3nc(C)ccc3F)cn2)cc1 [Compound 159] | 30 to 50 | 
COc1ccc(OCCN(C)C(=O)Cn2cc(NC(=O)CCOc3ccccc3)cn2)cc1 [Compound 24] | < 30 | 
COc1ncc(C(F)(F)F)cc1NCCC(=O)Nc1cnn(CC(=O)N(C)CCOc2ccc(C)cc2)c1 [Compound 187] | 30 to 50 | 
Cc1ccc(OCCN(C)C(=O)Cn2cc(NC(=O)C(CNc3ncc(F)cn3)CC(C)C)cn2)cc1 (stereo not drawn) [Compound 162] | < 30 | 
[2H]C([2H])([2H])c1ccc(OCCN(C)C(=O)Cn2cc(NC(=O)CCNc3ccnc(F)n3)cn2)cc1 [Compound 222] | > 50 | 
COc1cccc(OCCN(C)C(=O)Cn2cc(NC(=O)CCOc3ccc(C)cc3F)cn2)c1 [Compound 74] | < 30 | 
COC(=O)Nc1cc(OCCC(=O)Nc2cnn(CC(=O)N(C)CCOc3ccc(C)cc3)c2)ccn1 [Compound 262] | 30 to 50 | 
Cc1ccc(OCCN(C)C(=O)Cn2cc(NC(=O)CCNc3cnc(F)cc3C)cn2)cc1 [Compound 179] | > 50 | 
Cc1ccc(OCCN(C)C(=O)Cn2cc(NC(=O)CCOc3ccc(F)nc3C)cn2)cc1 [Compound 10] | 30 to 50 | 
Cc1ccc(OCCN(C)C(=O)Cn2cc(NC(=O)CCNc3ccnc(Br)c3)cn2)cc1 [Compound 135] | 30 to 50 | 
Cc1ccc(OCCN(C)C(=O)Cn2cc(NC(=O)[C@@H](CNc3ccc(F)nc3C)C(C)C)cn2)cc1 [Compound 171] | 30 to 50 | 
Cc1ccc(OCCN(C)C(=O)Cn2cc(NC(=O)CCOc3ccc(Cl)cc3F)cn2)cc1 [Compound 48] | < 30 | 
Cc1ccc(OCCN(C)C(=O)Cn2cc(NC(=O)CCNc3c(Cl)cncc3Cl)cn2)cc1 [Compound 152] | > 50 | 
